Source: patent US20190292189A1, “LIM KINASE INHIBITORS” (VIRONGY, LLC, priority 2016, published 2019)
Where two headings read alike, the source gives them in different places. Blank lines part the entries; values can stand above or below the compound they belong to.

Assays:
ROCK-II = ROCK-II (Homo sapiens, UniProt O75116); assay: ROCK-II biochemical counter-screen
Limk1 = Limk1 (Homo sapiens, UniProt P53667); assay: Limk1 biochemical assay (Reaction Biology, 10-dose IC50); set-up: His; purchased Reaction Biology Corporation; host or cells: insect cells; settings: for Limk1 inhibition: compared with 14a, values only in FIG. 4
Sequence of Limk1 (P53667 285-638): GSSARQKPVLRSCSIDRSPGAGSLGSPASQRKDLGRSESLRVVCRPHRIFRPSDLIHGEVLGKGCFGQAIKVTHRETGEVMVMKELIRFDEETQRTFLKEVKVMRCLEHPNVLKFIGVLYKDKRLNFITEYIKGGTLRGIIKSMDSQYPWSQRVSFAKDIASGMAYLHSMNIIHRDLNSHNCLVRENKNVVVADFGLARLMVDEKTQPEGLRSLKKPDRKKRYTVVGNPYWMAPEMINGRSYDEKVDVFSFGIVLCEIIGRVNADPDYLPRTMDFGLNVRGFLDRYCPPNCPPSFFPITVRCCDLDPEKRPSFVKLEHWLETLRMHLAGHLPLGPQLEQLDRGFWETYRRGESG

[1] = Plasma pharmacokinetics studies on rats; settings: rats; for AUC (iv) / Cl (iv) / T1/2 (iv) / Yd (iv) / Cmax: iv dosing 1 mg/kg; for F (%) (po): po dosing 2 mg/kg; for Cmax: read-out: Cmax (iv)
Experimental: In vivo pharmacokinetics (PK) studies were conducted for selected compounds during the whole optimization at various stages in order to identify structural elements that are favorable for in vivo applications, and/or to evaluate the feasibility of optimized Limk inhibitors for animal studies.

P450 2C9 = P450 2C9 (Homo sapiens, UniProt P11712); assay: P450 inhibition at 10 μM; format: in vitro ADME
Sequence of P450 2C9 (P11712 whole entry): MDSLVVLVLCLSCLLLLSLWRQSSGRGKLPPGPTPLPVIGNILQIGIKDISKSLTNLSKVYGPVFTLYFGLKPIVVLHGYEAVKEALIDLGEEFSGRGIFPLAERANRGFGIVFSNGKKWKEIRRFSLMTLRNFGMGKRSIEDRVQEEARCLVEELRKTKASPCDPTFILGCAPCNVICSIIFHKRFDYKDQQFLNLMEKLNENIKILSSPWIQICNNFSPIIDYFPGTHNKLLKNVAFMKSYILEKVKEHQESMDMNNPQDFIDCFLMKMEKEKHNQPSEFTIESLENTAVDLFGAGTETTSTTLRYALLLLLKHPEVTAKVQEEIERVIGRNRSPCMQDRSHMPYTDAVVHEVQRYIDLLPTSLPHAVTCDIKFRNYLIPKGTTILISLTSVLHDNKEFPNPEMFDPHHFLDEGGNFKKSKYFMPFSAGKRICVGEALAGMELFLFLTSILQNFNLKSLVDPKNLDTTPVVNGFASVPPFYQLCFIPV

[2] = Microsomal stability, human liver microsomes; format: in vitro ADME
[3] = Microsomal stability, rat liver microsomes; format: in vitro ADME; settings: rat liver microsomes
P450 3A4 = P450 3A4 (Homo sapiens, UniProt P08684); assay: P450 inhibition at 10 μM; format: in vitro ADME
Sequence of P450 3A4 (P08684 whole entry): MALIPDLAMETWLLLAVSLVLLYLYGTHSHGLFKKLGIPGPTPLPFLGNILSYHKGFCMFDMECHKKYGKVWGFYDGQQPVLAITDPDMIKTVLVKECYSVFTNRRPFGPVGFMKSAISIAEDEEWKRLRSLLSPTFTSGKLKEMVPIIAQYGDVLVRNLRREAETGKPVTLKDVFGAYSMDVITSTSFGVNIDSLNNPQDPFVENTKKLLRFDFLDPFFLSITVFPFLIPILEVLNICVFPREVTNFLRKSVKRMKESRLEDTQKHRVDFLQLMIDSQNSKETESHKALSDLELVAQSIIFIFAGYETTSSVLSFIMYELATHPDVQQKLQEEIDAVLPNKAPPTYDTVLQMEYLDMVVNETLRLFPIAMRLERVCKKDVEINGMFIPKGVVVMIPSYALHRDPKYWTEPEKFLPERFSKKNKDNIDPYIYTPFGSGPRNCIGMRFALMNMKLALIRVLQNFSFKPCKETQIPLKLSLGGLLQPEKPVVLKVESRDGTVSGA

P450 1A2 = biological target: T1, P450 1A2 (Homo sapiens, UniProt P05177); settings: 10 μM
T1 sequence (P05177 1-516): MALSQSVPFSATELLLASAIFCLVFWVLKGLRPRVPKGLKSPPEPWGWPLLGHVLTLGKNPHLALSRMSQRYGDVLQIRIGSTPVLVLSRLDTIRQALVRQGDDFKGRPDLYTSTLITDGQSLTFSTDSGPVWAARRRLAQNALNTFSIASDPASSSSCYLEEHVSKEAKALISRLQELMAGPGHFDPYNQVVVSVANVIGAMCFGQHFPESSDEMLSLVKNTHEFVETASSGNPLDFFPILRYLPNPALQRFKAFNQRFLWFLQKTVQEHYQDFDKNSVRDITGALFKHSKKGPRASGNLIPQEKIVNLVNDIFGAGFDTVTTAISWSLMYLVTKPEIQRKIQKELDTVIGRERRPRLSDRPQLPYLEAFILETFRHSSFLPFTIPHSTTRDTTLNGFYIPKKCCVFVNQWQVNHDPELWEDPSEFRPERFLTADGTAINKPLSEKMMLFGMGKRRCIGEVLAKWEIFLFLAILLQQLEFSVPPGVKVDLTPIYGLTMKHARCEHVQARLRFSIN

ROCK-I = ROCK-I (Homo sapiens, UniProt Q13464); assay: ROCK-I biochemical counter-screen; settings: Table 6; read-out: Biochemical Inhibition IC50 (nM) ROCK-I
Sequence of ROCK-I (Q13464 whole entry, species assumed): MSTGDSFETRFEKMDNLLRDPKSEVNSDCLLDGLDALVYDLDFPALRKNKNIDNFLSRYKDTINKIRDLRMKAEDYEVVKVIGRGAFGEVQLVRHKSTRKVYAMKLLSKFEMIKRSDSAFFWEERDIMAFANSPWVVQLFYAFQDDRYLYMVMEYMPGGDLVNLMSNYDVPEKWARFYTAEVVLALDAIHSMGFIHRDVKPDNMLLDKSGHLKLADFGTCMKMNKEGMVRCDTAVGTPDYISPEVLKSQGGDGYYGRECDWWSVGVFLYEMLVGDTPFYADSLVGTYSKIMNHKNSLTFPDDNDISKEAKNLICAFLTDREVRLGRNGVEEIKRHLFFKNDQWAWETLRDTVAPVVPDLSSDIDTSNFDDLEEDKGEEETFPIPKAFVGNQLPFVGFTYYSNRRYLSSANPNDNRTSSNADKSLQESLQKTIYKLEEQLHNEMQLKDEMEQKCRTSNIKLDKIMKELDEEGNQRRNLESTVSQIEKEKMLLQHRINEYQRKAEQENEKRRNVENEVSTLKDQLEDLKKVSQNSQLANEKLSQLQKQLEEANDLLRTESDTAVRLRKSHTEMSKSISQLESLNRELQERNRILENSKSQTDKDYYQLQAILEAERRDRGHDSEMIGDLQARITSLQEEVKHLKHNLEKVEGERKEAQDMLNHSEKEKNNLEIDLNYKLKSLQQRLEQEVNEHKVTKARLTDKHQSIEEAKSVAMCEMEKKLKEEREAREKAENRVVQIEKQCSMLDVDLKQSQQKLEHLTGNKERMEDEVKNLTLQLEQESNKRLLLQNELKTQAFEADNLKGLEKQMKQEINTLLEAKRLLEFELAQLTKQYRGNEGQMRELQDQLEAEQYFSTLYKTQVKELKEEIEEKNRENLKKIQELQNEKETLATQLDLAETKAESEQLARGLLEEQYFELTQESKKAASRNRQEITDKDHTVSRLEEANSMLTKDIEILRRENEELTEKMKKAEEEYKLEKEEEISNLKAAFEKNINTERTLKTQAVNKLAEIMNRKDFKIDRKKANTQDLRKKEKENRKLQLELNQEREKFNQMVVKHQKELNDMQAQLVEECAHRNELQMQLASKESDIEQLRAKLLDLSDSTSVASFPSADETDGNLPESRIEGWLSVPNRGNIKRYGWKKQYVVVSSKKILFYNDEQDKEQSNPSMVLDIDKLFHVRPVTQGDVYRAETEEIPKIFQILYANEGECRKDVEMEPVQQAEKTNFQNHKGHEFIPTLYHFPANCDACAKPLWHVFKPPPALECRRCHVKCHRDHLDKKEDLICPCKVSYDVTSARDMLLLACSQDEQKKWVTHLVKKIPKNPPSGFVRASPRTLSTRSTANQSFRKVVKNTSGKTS

P450 2D6 = P450 2D6 (Homo sapiens, UniProt P10635); assay: P450 inhibition at 10 μM; format: in vitro ADME
Sequence of P450 2D6 (P10635 whole entry): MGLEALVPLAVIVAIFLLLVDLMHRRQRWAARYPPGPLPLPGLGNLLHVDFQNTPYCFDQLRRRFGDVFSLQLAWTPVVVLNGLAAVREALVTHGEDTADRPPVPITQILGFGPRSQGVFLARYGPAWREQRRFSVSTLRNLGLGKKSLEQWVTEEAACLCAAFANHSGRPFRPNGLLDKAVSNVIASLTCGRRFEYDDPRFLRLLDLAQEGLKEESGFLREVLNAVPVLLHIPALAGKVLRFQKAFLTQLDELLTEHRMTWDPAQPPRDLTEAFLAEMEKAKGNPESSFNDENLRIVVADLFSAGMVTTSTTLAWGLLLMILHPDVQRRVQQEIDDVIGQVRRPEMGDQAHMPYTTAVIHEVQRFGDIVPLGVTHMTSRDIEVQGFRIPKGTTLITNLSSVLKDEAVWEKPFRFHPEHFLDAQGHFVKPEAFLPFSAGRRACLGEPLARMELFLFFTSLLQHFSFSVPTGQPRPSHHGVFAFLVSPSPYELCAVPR

[4] = Table 1, means of ≥2 experiments, read-out: IC50 (nM) ROCK-II
[5] = Table 1, means of ≥2 experiments, read-out: IC50 (nM) Limk1
[6] = Table 3, means of ≥2 experiments, read-out: IC50 (nM) ROCK-II
[7] = Table 4, means of ≥2 experiments, read-out: IC50 (nM) ROCK-II
[8] = Table 4, means of ≥2 experiments, read-out: IC50 (nM) Limk1
[9] = Table 3, means of ≥2 experiments, read-out: IC50 (nM) Limk1

Sequence of ROCK-II (O75116 whole entry, species assumed): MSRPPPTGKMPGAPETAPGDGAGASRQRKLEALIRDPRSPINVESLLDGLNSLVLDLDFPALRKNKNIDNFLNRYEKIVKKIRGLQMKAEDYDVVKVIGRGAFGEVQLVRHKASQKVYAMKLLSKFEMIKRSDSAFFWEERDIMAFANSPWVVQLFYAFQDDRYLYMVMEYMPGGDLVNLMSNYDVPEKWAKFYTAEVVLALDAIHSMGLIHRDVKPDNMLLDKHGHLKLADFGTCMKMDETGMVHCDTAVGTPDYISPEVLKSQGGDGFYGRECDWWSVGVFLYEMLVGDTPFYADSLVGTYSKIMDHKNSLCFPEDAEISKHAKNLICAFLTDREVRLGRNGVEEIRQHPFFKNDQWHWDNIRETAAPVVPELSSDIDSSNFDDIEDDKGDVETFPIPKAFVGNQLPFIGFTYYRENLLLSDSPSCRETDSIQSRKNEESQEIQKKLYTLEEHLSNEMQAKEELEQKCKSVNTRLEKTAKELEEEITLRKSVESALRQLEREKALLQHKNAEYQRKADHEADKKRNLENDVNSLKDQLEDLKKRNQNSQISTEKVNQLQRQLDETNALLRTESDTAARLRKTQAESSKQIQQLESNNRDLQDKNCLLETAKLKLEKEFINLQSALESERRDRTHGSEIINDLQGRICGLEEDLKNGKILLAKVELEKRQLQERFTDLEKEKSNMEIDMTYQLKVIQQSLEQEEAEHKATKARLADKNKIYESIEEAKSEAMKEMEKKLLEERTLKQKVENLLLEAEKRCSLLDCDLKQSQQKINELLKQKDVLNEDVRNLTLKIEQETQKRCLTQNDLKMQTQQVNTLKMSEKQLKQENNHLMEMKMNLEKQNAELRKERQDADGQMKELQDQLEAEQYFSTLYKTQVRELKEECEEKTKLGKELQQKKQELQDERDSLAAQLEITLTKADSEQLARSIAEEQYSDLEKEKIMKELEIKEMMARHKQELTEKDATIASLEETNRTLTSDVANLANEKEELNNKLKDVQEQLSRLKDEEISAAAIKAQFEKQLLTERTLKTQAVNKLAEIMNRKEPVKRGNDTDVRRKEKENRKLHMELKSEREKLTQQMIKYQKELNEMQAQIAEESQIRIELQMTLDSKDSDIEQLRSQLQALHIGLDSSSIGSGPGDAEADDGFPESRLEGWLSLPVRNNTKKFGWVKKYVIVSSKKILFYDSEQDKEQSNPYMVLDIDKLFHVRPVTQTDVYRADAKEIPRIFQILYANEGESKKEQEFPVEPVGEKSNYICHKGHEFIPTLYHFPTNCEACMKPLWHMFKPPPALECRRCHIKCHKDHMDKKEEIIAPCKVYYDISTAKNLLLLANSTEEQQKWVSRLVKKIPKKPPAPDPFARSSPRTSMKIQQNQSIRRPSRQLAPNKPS

SMILES: CC(C)NC(=O)c1cccc(NC(=O)Nc2ccc(-c3cn[nH]c3)cc2)c1 [Compound 7a, 3-(3-(4-(1H-pyrazol-4-yl)phenyl)ureido)-N-isopropylbenzamide]
- IC50 (ROCK-II; [4]): 45 nM
- IC50 (Limk1; [5]): > 10000 nM

SMILES: CC(C)NC(=O)c1cccc(NC(=O)Nc2ccc(-c3ccncc3)cc2)c1 [Compound 7b, N-Isopropyl-3-(3-(4-(pyridin-4-yl)phenyl)ureido)benzamide]
- IC50 (ROCK-II; [4]): 90 nM
- IC50 (Limk1; [5]): > 10000 nM

SMILES: Cc1c[nH]c2ncnc(-c3ccc(NC(=O)Nc4cccc(F)c4)cc3)c12 [Compound 10b, 1-(3-Fluorophenyl)-3-(4-(5-methyl-7H-pyrrolo[2,3-d]pyrimidin-4-yl)phenyl)urea]
- IC50 (ROCK-II; [6]): 5420 nM
- IC50 (Limk1; read-out: Limk1 IC50): 315 nM

SMILES: CC(C)NC(=O)c1cccc(NC(=O)Nc2ccc(-c3ccnc(N)n3)cc2)c1 [Compound 7c, 3-(3-(4-(2-Aminopyrimidin-4-yl)phenyl)ureido)-N-isopropylbenzamide]
- IC50 (ROCK-II; [4]): 166 nM
- IC50 (Limk1; [5]): > 10000 nM

SMILES: COc1ccc(N(CCN)C(=O)Nc2ccc(-c3ncnc4[nH]cc(C)c34)cc2)cc1 [Compound 18o, 1-(2-Aminoethyl)-1-(4-methoxyphenyl)-3-(4-(5-methyl-7H-pyrrolo[2,3-d]pyrimidin-4-yl)phenyl)urea]
- AUC (iv) [1]: 1.1 µM·h
- Cl (iv) [1]: 36.0 mL/min/kg
- T1/2 (iv) [1]: 4.6 h
- Yd (iv) [1]: 6.0 L/kg
- F (%) (po) [1]: 0%
- Cmax [1]: 2.2 µM
- IC50 (Limk1; [8]): 27 nM

SMILES: Cc1[nH]c2ncnc(-c3ccc(NC(=O)Nc4cccc(C(=O)NC(C)C)c4)cc3)c2c1C [Compound 7i, 3-(3-(4-(5,6-Dimethyl-7H-pyrrolo[2,3-d]pyrimidin-4-yl)phenyl)ureido)-N-isopropylbenzamide]
- P450 % inh. at 10 μM 2C9 (P450 2C9): 42%
- Microsomal Stability t1/2 (min) Human [2]: 47 min
- Microsomal Stability t1/2 (min) Rat [3]: >120 min
- P450 % inh. at 10 μM 3A4 (P450 3A4): 42%
- P450 % inh. at 10 μM 1A2 (P450 1A2): 77%
- IC50 (ROCK-II; [4]): > 10000 nM
- IC50 (ROCK-I): > 20000 nM
- P450 % inh. at 10 μM 2D6 (P450 2D6): 34%
- IC50 (Limk1; [5]): 80 nM

SMILES: Cc1c[nH]c2ncnc(-c3ccc(NC(=O)Nc4cccc(C(=O)NC(C)C)c4)c(C(F)(F)F)c3)c12 [Compound 7j, N-Isopropyl-3-(3-(4-(5-methyl-7H-pyrrolo[2,3-d]pyrimidin-4-yl)-2-(trifluoromethyl)phenyl)ureido)-benzamide]
- IC50 (ROCK-II; read-out: ROCK-II IC50): 976 nM
- IC50 (Limk1; read-out: Limk1 IC50): 60 nM

SMILES: COc1ccccc1NC(=O)Nc1ccc(-c2ncnc3[nH]cc(C)c23)cc1 [Compound 10c, 1-(2-Methoxyphenyl)-3-(4-(5-methyl-7H-pyrrolo[2,3-d]pyrimidin-4-yl)phenyl)urea]
- IC50 (ROCK-II; [6]): 6650 nM
- IC50 (Limk1; read-out: Limk1 IC50): 283 nM

SMILES: Cc1cc2c(-c3ccc(NC(=O)Nc4cccc(C(=O)NC(C)C)c4)cc3)ncnc2[nH]1 [Compound 7h, N-Isopropyl-3-(3-(4-(6-methyl-7H-pyrrolo[2,3-d]pyrimidin-4-yl)phenyl)ureido)benzamide]
- IC50 (ROCK-II; [4]): > 10000 nM
- IC50 (Limk1; [5]): 80 nM

SMILES: COc1ccc(NC(=O)Nc2ccc(-c3ncnc4[nH]cc(C)c34)cc2)cc1 [Compound 10e, 1-(4-Methoxyphenyl)-3-(4-(5-methyl-7H-pyrrolo[2,3-d]pyrimidin-4-yl)phenyl)urea]
- IC50 (ROCK-II; [6]): > 10000 nM
- IC50 (ROCK-II; read-out: ROCK-II IC50): > 10000 nM

SMILES: Cc1c[nH]c2ncnc(-c3ccc(NC(=O)Nc4cccc(C(=O)NC(C)C)c4)cc3)c12 [Compound 7g, N-Isopropyl-3-(3-(4-(5-methyl-7H-pyrrolo[2,3-d]pyrimidin-4-yl)phenyl)ureido)benzamide]
- AUC (iv) [1]: 4.3 µM·h
- Cl (iv) [1]: 9.0 mL/min/kg
- T1/2 (iv) [1]: 1.0 h
- Yd (iv) [1]: 0.3 L/kg
- F (%) (po) [1]: 0%
- Cmax [1]: 8.5 µM

SMILES: Cc1c[nH]c2ncnc(-c3ccc(NC(=O)Nc4ccccc4)cc3)c12 [Compound 10a, 1-(4-(5-Methyl-7H-pyrrolo[2,3-d]pyrimidin-4-yl)phenyl)-3-phenylurea]
- AUC (iv) [1]: 14.3 µM·h
- Cl (iv) [1]: 3.4 mL/min/kg
- T1/2 (iv) [1]: 1.6 h
- Yd (iv) [1]: 0.5 L/kg
- F (%) (po) [1]: 16%
- Cmax [1]: 7 µM
- IC50 (ROCK-II; read-out: ROCK-II IC50): 2360 nM
- IC50 (Limk1; read-out: Limk1 IC50): 142 nM

SMILES: Cc1c[nH]c2ncnc(-c3ccc(NC(=O)Nc4nccs4)cc3)c12 [Compound 10f, 1-[4-(5-Methyl-7H-pyrrolo[2,3-d]pyrimidin-4-yl)-phenyl]-3-thiazol-2-yl-urea]
- IC50 (ROCK-II; [6]): 2290 nM
- IC50 (Limk1; [9]): 203 nM

SMILES: COc1cccc(NC(=O)Nc2ccc(-c3ncnc4[nH]cc(C)c34)cc2)c1 [Compound 10d, 1-(3-Methoxyphenyl)-3-(4-(5-methyl-7H-pyrrolo[2,3-d]pyrimidin-4-yl)phenyl)urea]
- IC50 (ROCK-II; [6]): 2570 nM
- IC50 (Limk1; [9]): 75 nM

SMILES: Cc1c[nH]c2ncnc(-c3ccc(NC(=O)Nc4cccc(C(=O)NC(C)C)c4)c(OCCN(C)C)c3)c12 [Compound 7l, 3-(3-(2-(2-(Dimethylamino)ethoxy)-4-(5-methyl-7H-pyrrolo[2,3-d]pyrimidin-4-yl)phenyl)ureido)-N-isopropylbenzamide]
- IC50 (ROCK-II; Table 2, means of ≥2 experiments, read-out: IC50 (nM) ROCK-II): 7080 nM
- IC50 (Limk1; Table 2, means of ≥2 experiments, read-out: IC50 (nM) Limk1): 710 nM

SMILES: Cc1c[nH]c2ncnc(-c3ccc(NC(=O)Nc4ccccn4)cc3)c12 [Compound 10g, 1-[4-(5-Methyl-7H-pyrrolo[2,3-d]pyrimidin-4-yl)-phenyl]-3-pyridin-2-yl-urea]
- IC50 (ROCK-II; [6]): > 10000 nM
- IC50 (Limk1; [9]): 4510 nM

SMILES: CC(C)NC(=O)c1cccc(NC(=O)Nc2ccc(-c3ncnc4[nH]ccc34)cc2)c1 [Compound 3, 3-(3-(4-(7H-pyrrolo[2,3-d]pyrimidin-4-yl)phenyl)ureido)-N-isopropylbenzamide]
- IC50 (ROCK-II; [4]): 1360 nM
- IC50 (Limk1; read-out: Limk1 IC50): 201 nM

Other lines, results leading:

- Limk1 inhibition (Limk1): even lower Limk1 inhibitions
SMILES: COc1ccc(NC(=O)N(CCN2CCCC2)c2ccc(-c3ncnc4[nH]cc(C)c34)cc2)cc1 [Compound 14b, 3-(4-Methoxyphenyl)-1-(4-(5-methyl-7H-pyrrolo[2,3-d]pyrimidin-4-yl)phenyl)-1-(2-(pyrrolidin-1-yl)ethyl)urea]

- IC50 (ROCK-II; [7]): > 10000 nM
SMILES: Cc1ccccc1N(CCO)C(=O)Nc1ccc(-c2ncnc3[nH]cc(C)c23)cc1 [Compound 18i, 1-(2-Hydroxyethyl)-3-(4-(5-methyl-7H-pyrrolo[2,3-d]pyrimidin-4-yl)phenyl)-1-o-tolylurea]

- IC50 (ROCK-II; [7]): 1900 nM
SMILES: Cc1c[nH]c2ncnc(-c3ccc(NC(=O)N(CCO)c4cccc(F)c4)cc3)c12 [Compound 18d, 1-(3-Fluorophenyl)-1-(2-hydroxyethyl)-3-(4-(5-methyl-7H-pyrrolo[2,3-d]pyrimidin-4-yl)phenyl)urea]

- IC50 (ROCK-II; [7]): 8940 nM
- IC50 (Limk1; [8]): 151 nM
SMILES: Cc1cccc(N(CCO)C(=O)Nc2ccc(-c3ncnc4[nH]cc(C)c34)cc2)c1 [Compound 18j, 1-(2-Hydroxyethyl)-3-(4-(5-methyl-7H-pyrrolo[2,3-d]pyrimidin-4-yl)phenyl)-1-m-tolylurea]

- IC50 (Limk1; read-out: Limk1 IC50): 1090 nM
SMILES: COc1ccc(NC(=O)N(C)c2ccc(-c3ncnc4[nH]cc(C)c34)cc2)cc1 [Compound 14a, 3-(4-Methoxyphenyl)-1-methyl-1-(4-(5-methyl-7H-pyrrolo[2,3-d]pyrimidin-4-yl)phenyl)urea]

- Limk1 inhibition (Limk1): even lower Limk1 inhibitions
SMILES: COc1ccc(NC(=O)N(CCN2CCCCC2)c2ccc(-c3ncnc4[nH]cc(C)c34)cc2)cc1 [Compound 14c, 3-(4-Methoxyphenyl)-1-(4-(5-methyl-7H-pyrrolo[2,3-d]pyrimidin-4-yl)phenyl)-1-(2-(piperidin-1-yl)ethyl)urea]

- IC50 (ROCK-II; [7]): 1600 nM
SMILES: Cc1c[nH]c2ncnc(-c3ccc(NC(=O)N(CCO)c4ccccc4F)cc3)c12 [Compound 18c, 1-(2-Fluorophenyl)-1-(2-hydroxyethyl)-3-(4-(5-methyl-7H-pyrrolo[2,3-d]pyrimidin-4-yl)phenyl)urea]

- IC50 (ROCK-II; [7]): > 10000 nM
- IC50 (ROCK-II; read-out: ROCK-II IC50): > 10000 nM
SMILES: COc1ccc(N(CCN(C)C)C(=O)Nc2ccc(-c3ncnc4[nH]cc(C)c34)cc2)cc1 [Compound 18q, 1-(2-(Dimethylamino)ethyl)-1-(4-methoxyphenyl)-3-(4-(5-methyl-7H-pyrrolo[2,3-d]pyrimidin-4-yl)phenyl)urea]
